We go through 1 compound from patent US20170281624A1, “COMBINATION THERAPIES OF ALK INHIBITORS” (Novartis AG, priority 2014, published 2017).

Structures are written as SMILES.

The conditions of data set [1]: ceritinib trials; cited from earlier work.
For another data set, the system named is ALK-positive NSCLC. The experiment in a line: Clinical study of LDK378 in ALK-positive NSCLC patients, 750 mg dose group. Type of data set: in vivo, human.
Data set [2] deals with PD-L1 (CD274) in H3122 cells. The experiment in a line: PD-L1 (CD274) expression by TaqMan real time PCR and flow cytometry. Type of data set: cell-based, human. The protocol: This example evaluates the effects of selected therapeutic agent LDK378 on PD-L1 (CD274) modulation. LDK378 was examined by real time PCR and flow cytometry on PD-L1 levels.
TaqMan RT PCR assays were developed to detect changes of expression levels of PD-L1 (CD274) in cell lines and xenograft tumors. mRNA was isolated from frozen cell pellets or tumor fragments using the Qiagen RNeasy Mini kit. Isolated RNA was frozen at −80° C. RNA quality was checked and RNA was quantified using a 2100 Agilent Bioanalyzer following the protocol for the Agilent RNA 6000 Nano Kit. cDNA was prepared using a High Capacity RNA-to cDNA Kit (Applied Biosystems).
Real-time PCR reactions were carried out in 20 μl total volume, including 10 μl of Universal PCR master mix (Applied Biosystems), 1 μl of human PD-L1 (CD274) probe/primer set (Applied Biosystems), and 8 μl of cDNA. Each sample was run in triplicate. The amount of cDNA produced from 25-50 ng of RNA in the reverse transcription reaction was used in each PCR reaction. Due to difference in mRNA levels between PD-L1 and GAPDH, the two real-time PCR reactions were done in separate tubes using same amount of cDNA. The real-time PCR reaction was run on the C1000 Thermal Cycle (BioRad) with the cycle program as follows: a 10 minute incubation at 95° C. followed by 40 cycles of 95° C. for 15 seconds and 60° C. for 1 minute. […]
For orientation: In qPCR the cycle at which signal appears reflects the starting amount.

On to `Cc1cc(Nc2ncc(Cl)c(Nc3ccccc3S(=O)(=O)C(C)C)n2)c(OC(C)C)cc1C1CCNCC1` [LDK378, 5-chloro-N^2-(2-isopropoxy-5-methyl-4-(piperidin-4-yl)phenyl)-N^4-[2-(propane-2-sulfonyl)-phenyl]-pyrimidine-2,4-diamine], for which the immune-related adverse events result in data set [1] is “have not been frequently reported”. In the data set on ALK-positive NSCLC (750 mg, 53.3% of the patients censored), the “median progression-free survival (PFS)” value was 8.21 months. In the data set on ALK-positive NSCLC (144 patients with confirmed CR or PR, 750 mg), the “median time to response” value is 6.1 weeks. Moreover, the “overall response rate (ORR)” value in the data set on ALK-positive NSCLC (246 ALK-positive NSCLC patients, 750 mg dose group (RD)) was found to be 58.5%. The ORR in the data set on ALK-positive NSCLC (ALK inhibitor-naïve patients) turned out to be 66.3%; with ALK-positive NSCLC (patients treated with a prior ALK inhibitor), 54.6%. Besides, the “patients who achieved a response within 12 weeks” value with ALK-positive NSCLC (among the 144 patients with confirmed CR or PR, 750 mg) was found to be 86.1%. Further, the “estimated median duration of response (DOR)” value in the data set on ALK-positive NSCLC (investigator assessment, 750 mg) was 9.69 months. Further, the “PD-L1 mRNA” value in data set [2] (H3122 (NSCLC with ALK translocation) in vitro, FIG. 1) is “Inhibition”. Moreover, the “PD-L1 levels on tumor cells” value in data set [2] (real time PCR and flow cytometry) is “Significant inhibition”.
